# Measured values published in patent US5023322A, “Analogs of growth hormone releasing factor (GRF) and a method for the preparation thereof” (MTA Kutatas-es Szervezetelemzo Intezete, priority 1988, dated 1991).
# No end group written: not given here.
# Legend:
# [1] = test system: growth hormone release; test: plasma GH level in anaesthetized rats after intravenous administration; format: in vivo, Wistar Amsterdam rats; conditions: for Plasma GH level: i.v.
# Procedure: (§1) The biological effects of the compounds according to the invention were tested under in vitro and in vivo conditions. In both instances the growth hormone release was measured as a function of the concentration of the compound administered. The amount of growth hormone released was detected by radioimmune assay with a reliability limit of 95%. The results obtained were compared to those obtained when administering native hpGRF or hGRF(1-29)--NH2, respectively.
# (§2) Mature male Wistar Amsterdam rats, weighing 250-300 g, were anaesthetized intraperitoneally with 60 mg/kg of pentobarbital. The peptides to be tested were dissolved in 0.9% by weight aqueous saline solution, and were administered to the animals 20 minutes after anaesthesy as an intravenous (i.v.), intramuscular (i.m.) or subcutaneous (s.c.) injection. Blood samples were taken from the jugular vein of the animals prior to the administration of the active agent (-1 minute) and 5, 15 and 30 minutes after challenge. The amount of growth hormone released was measured by radioimmune assay.
# Therefore, when the compounds were administered intravenously, the percentage increase in activity was calculated by relating the amount of growth hormone released upon administering a compound of the invention to the amount of growth hormone released upon administering hGRF(1-29)--NH2.
# [2] = test system: growth hormone release; test: plasma GH level in anaesthetized rats after intramuscular administration; format: in vivo, Wistar Amsterdam rats; conditions: administered intramuscularly, in the doses tested
# Procedure: as §1, §2
# (§3) Therefore, in these tests the activity of the compounds according to the invention was characterized by the percentage increase in the plasma growth hormone level related to that originally present in the plasma (basal value).
# [3] = test system: growth hormone release; test: plasma GH level in anaesthetized rats after subcutaneous administration; format: in vivo, Wistar Amsterdam rats; conditions: administered subcutaneously, in the doses tested
# Procedure: as §1, §2, §3
# [4] = literature; cited from earlier work
# [5] = test system: milk production; conditions: cattle; J. Dairy Science 70, 2511 (1987) and 71, 92 (1988); cited from earlier work
Substance,release of growth hormone (in words) ([1]; administered intravenously),"Plasma GH level ([1]; 0.8 μg/kg, +5 min) [ng/mL]","Plasma GH level ([1]; 0.8 μg/kg, +15 min) [ng/mL]","Plasma GH level ([1]; 0.8 μg/kg, +30 min) [ng/mL]","Plasma GH level ([1]; 0.8 μg/kg, -1 min (before administration)) [ng/mL]","Plasma GH level ([1]; 2 μg/kg, +5 min) [ng/mL]","Plasma GH level ([1]; 2 μg/kg, +15 min) [ng/mL]","Plasma GH level ([1]; 2 μg/kg, +30 min) [ng/mL]","Plasma GH level ([1]; 2 μg/kg, -1 min (before administration)) [ng/mL]",activity on growth hormone release (in words) [2],activity on growth hormone release (in words) [3],biological activity compared to the native hGRF(1-44)--NH2 (in words) [4],"milk production of cattles, quality and quantity (in words) [5]"
"hGRF(1-29)--NH2 (YADAIFTNSYRKVLGQLSARKLLQDIMSR-NH2; UniProt P01286 32-60, looked up, fragment) [Standard, fragment of the native human peptide amide extending from the N-terminal through residue 29; applied as standard]",stimulated the release of growth hormone,311.00,93.60,48.73,80.46,1061.11,393.13,109.22,125.22,practically inactive,practically inactive,favourable activity,influenced favourably
"human GRF(1-44)--NH2 (YADAIFTNSYRKVLGQLSARKLLQDIMSRQQGESNQERGARARL-NH2; UniProt P01286 32-75, looked up) [native human GRF, a peptide amide of 44 residues]",–,–,–,–,–,–,–,–,–,–,–,–,influenced favourably
